Data on six molecules can be found in paper PMC3216401 (Antiviral research, 2011).

Like-named read-outs stand apart in the source and are kept apart here. A value given as a limit tells only on which side of the number the result lay.

The test system of data set [1] is Influenza A/Vietnam/1203/2004 (H5N1).
The test system is the same in data set [2]. Description: microbe, parasite or virus in culture. The following applies: H5N1, MDCK, read-out: IC50, Neutral Red Uptake Assay.
Data set [3] shares this test system. Description: microbe, parasite or virus in culture. The following applies: H5N1, MDCK, read-out: IC50, Visual Assay.
Data set [4] concerns A/Thailand/2(Kan-1)/16/2004 (H5N1). The data set is described as follows: microbe, parasite or virus in culture. To be noted: Influenza A virus, H5N1, MDCK, read-out: IC50, Visual Assay.
Data set [5] concerns Influenza A/Vietnam/1203/2004 (H5N1). The source holds these as a separate data set.
Data set [6] deals with A/Thailand/2(Kan-1)/16/2004 (H5N1).
The test system of data set [7] is influenza A/Vietnam/1203/2004 H5N1 virus. The following applies: in vivo.
Data set [8] relates to A/Thailand/2(Kan-1)/16/2004 (H5N1). The source holds these as a separate data set.
Data set [9] in a line: in vitro. To be noted: dog, CC50, Neutral Red Uptake Assay.
In data set [10] the test system is A/Hong Kong/213/2003 (H5N1). The data set is described as follows: microbe, parasite or virus in culture. The following applies: Influenza A virus, H5N1, MDCK, read-out: IC90, VYR Assay. Format: cell-based.
Data set [11] has as its system A/Hong Kong/213/2003 (H5N1). Description: microbe, parasite or virus in culture. The following applies: Influenza A virus, H5N1, MDCK, read-out: IC50, Visual Assay.
A short description of data set [12]: in vitro. To be noted: dog, CC50, Visual Assay.
Data set [13] relates to Influenza A/Vietnam/1203/2004 (H5N1). Description: microbe, parasite or virus in culture. Format: cell-based. To be noted: H5N1, MDCK, read-out: IC90, VYR Assay.
For data set [14], the system named is A/Hong Kong/213/2003 (H5N1). The data set is described as follows: microbe, parasite or virus in culture. The following applies: Influenza A virus, H5N1, MDCK, read-out: IC50, Neutral Red Uptake Assay.
Data set [15] deals with A/Hong Kong/213/2003 (H5N1).
The test system of data set [16] is A/Thailand/2(Kan-1)/16/2004 (H5N1). The data set is described as follows: microbe, parasite or virus in culture. The following applies: Influenza A virus, H5N1, MDCK, read-out: IC50, Neutral Red Uptake Assay.
For data set [17] the following is noted: mouse, in vivo.
Data set [18] concerns A/Hong Kong/213/2003 (H5N1). The source holds these as a separate data set.
The subject of data set [19] is A/Thailand/2(Kan-1)/16/2004 (H5N1). The data set is described as follows: microbe, parasite or virus in culture. Format: cell-based. To be noted: Influenza A virus, H5N1, MDCK, read-out: IC90, VYR Assay.
Data set [20] deals with MDCK cells.
In data set [21] the test system is MDCK cells. The source holds these as a separate data set.
The subject of the next data set is influenza viruses. Description: microbe, parasite or virus in culture. Format: cell-based, influenza A and B viruses. To be noted: Influenza A virus, read-out: IC50 values, range.
A further data set deals with influenza virus. To be noted: mouse, in vivo, sc; cited from earlier work.
A further data set deals with influenza virus (H1N1). To be noted: read-out: EC50, influenza virus replication in MDCK cells; cited from earlier work.

For `O=c1ccn([C@@H]2O[C@H](CO)[C@@H](O)[C@H]2F)c(=O)[nH]1` [2’-deoxy-2’-fluorouridine], the “SI (CC50/IC50), Visual Assay” value in data set [1] and in data set [6] was 0 throughout. The IC50 in data set [2], in data set [3] and in data set [4] was greater than 100 µM in each case. In addition, the “SI (CC50/IC50), Neutral Red Uptake Assay” value in data set [5] is recorded as 0.
`Nc1nc(=O)n([C@H]2C[C@H](O)[C@@H](CO)O2)cc1F` [2'-deoxy-5-fluorocytidine]: in data set [7], the “Inhibition in the H5N1 mouse model” value is “not inhibitory”. Further, the “Toxicity in the H5N1 mouse model” value in [7] is reported as “very toxic”. Also, in data set [7] (mouse), the “Promotion of survival of infected mice” value is “not very effective”. In data set [7] (mouse), the “Protection from death, i.p.” value was “not shielded from death”. Further, the “SI (CC50/IC50), Neutral Red Uptake Assay” value in data set [8] and in [18] was 0 ± 0 in each case. The CC50 in “in vitro [9]” and in the data set “in vitro [12]” was greater than 100 µM each time. For the same molecule, the results for the IC90 in [10], in data set [13] and in [19] were greater than 100 µM, 0.13 µM and greater than 100 µM, respectively. The IC50 in data set [11] is greater than 100 µM; in data set [2], 0.09 ± 0.1 µM; in data set [3], 0.19 ± 0.03 µM; in [14], greater than 100 µM; in data set [4], greater than 100 µM; in data set [16], greater than 100 µM. In addition, the “SI (CC50/IC50), Visual Assay” value in data set [6] and in data set [15] was 0 ± 0 throughout. Also, the Tolerability entry in [17] is listed as “well- tolerated”. Moreover, the Toxicity in mice result in data set [17] was “considerable toxicity in the form of severe weight loss”.
As to `Nc1ccn([C@@H]2O[C@H](CO)[C@@H](O)[C@H]2I)c(=O)n1` [2’-iodo-2’-deoxycytidine], the “SI (CC50/IC50), Visual Assay” value in data set [1], in [6] and in [15] was 0 in each case. Besides, the “SI (CC50/IC50), Neutral Red Uptake Assay” value in data set [8], in data set [5] and in [18] was 0 each time. The IC50 in data set [11], in data set [2], in data set [3], in data set [14], in data set [4] and in [16] was greater than 100 µM throughout.
Take `[N-]=[N+]=N[C@@H]1[C@H](O)[C@@H](COP(=O)(O)OP(=O)(O)OP(=O)(O)O)O[C@H]1n1ccc(N)nc1=O` [2’-azido-2’-deoxycytidine, 2'-azido-2'-deoxyctidine-5'-triphosphate]: the “SI (CC50/IC50), Neutral Red Uptake Assay” value in data set [8] is 0 ± 0; in [5] it was greater than 2030; in [18], 0 ± 0. In the data set with MDCK cells [20], the “CC50, Neutral Red Uptake Assay” value was greater than 100 ± 0 µM. Further, the “SI (CC50/IC50), Visual Assay” value in data set [6] and in data set [15] was 0 ± 0 each time. Further, in the data set on MDCK cells [21], the “CC50, Visual Assay” value was greater than 100 ± 0 µM.
As for `Nc1nc2c(ncn2[C@@H]2O[C@H](CO)[C@@H](O)[C@H]2F)c(=O)[nH]1` [2’-deoxy-2’-fluoroguanosine], the IC50 is 8.5 to 21 µM in the data set with influenza viruses; 8.5 µM in [11]; 8.6 µM in [2]; 21 µM in data set [3]; greater than 100 µM in data set [4]. Also, the “Mice protected from death” value with influenza virus is recorded as 50%. Also, the “SI (CC50/IC50), Visual Assay” value in [1] is greater than 4.8; in [6], 0; in data set [15], greater than 12. For the same molecule, the “SI (CC50/IC50), Neutral Red Uptake Assay” value in data set [5] was greater than 12. Also, the EC50 in the data set on influenza virus (H1N1) is 18.2 µM.
In the case of `Nc1ncnc2c1ncn2[C@@H]1O[C@H](CO)[C@@H](O)[C@H]1F` [2’-deoxy-2’-fluoroadenosine], the “SI (CC50/IC50), Visual Assay” value in data set [1], in data set [6] and in data set [15] was 0 each time. Besides, the “SI (CC50/IC50), Neutral Red Uptake Assay” value in data set [8], in data set [5] and in data set [18] was 0 each time. In addition, the IC50 in data set [11], in data set [2], in data set [3], in data set [14], in data set [4] and in data set [16] was greater than 100 µM throughout.

What is called IC50 is the midpoint of a concentration-inhibition curve. One may read the IC90 as the concentration at which the effect reaches the 90% level. In general, EC50 refers to the concentration at which the effect is half-maximal.
